The text below walks through data of patent publication US8703713B2, “Combination therapy for pancreatic cancer using an antigenic peptide and chemotherapeutic agent” (Onco Therapy Science, Inc., priority 2007, dated 2014).

Structures can show the parent of a compound that is named as a salt. Peptide text beside a SMILES is read from it.

A short description of data set [1]: Preliminary test administration of the peptide. Format: in vivo, human. Conditions: 10 mg of the peptide subcutaneously before first vaccine administration, monitoring 30 minutes, all cases. As for the experimental part: For the purpose of avoiding unanticipated adverse events, such as anaphylactic shock, 10 mg of the peptide is subcutaneously administered as a preliminary test administration before the first vaccine administration to a site other than the site of the actual administration, and monitoring is carried out for 30 minutes. If a Grade 3 or higher local reaction or systemic adverse event could not be observed, the actual administration was carried out.

Data set [2] deals with unresectable pancreatic cancer. Conditions: cited from earlier work.
The mark [3] stands for this setting: standard therapy against unresectable pancreatic cancer.

In the case of `CC[C@H](C)[C@H](NC(=O)[C@H](CCCNC(=N)N)NC(=O)[C@H](CC(N)=O)NC(=O)CNC(=O)[C@H](CC(=O)O)NC(=O)[C@@H]1CCCN1C(=O)[C@@H](NC(=O)[C@H](Cc1ccccc1)NC(=O)[C@@H](N)CCCNC(=N)N)C(C)C)C(=O)O` [VEGFR2-169, RFVPDGNRI] (H-RFVPDGNRI-OH), the “local adverse event and systemic adverse event” value in data set [1] is given as “not observed in any of the cases”.

As to `Nc1ccn([C@@H]2O[C@H](CO)[C@@H](O)C2(F)F)c(=O)n1` [gemcitabine, 2′-deoxy-2′,2′-difluorocytidine monohydrochloride (b-isomer)], the “Evident tumor reducing effect (Objective Response)” value in data set [2] (gemcitabine alone, data obtained so far) is listed as 10%. Moreover, the “Disease control rate (SD or higher)” value in data set [2] (gemcitabine alone, data obtained so far, listed as GEM alone) is reported as 45-48%. Besides, in data set [2] (setting [3]), the median survival period is listed as 5.7 months and the one-year survival rate was 18%.
